Experimental data as given in patent publication US7064120B2, “Tricyclic pyridyl carboxamides and derivatives thereof tocolytic oxytocin receptor antagonists” (Wyeth, priority 2001, dated 2006).

Biological target: T1, human oxytocin receptor (Homo sapiens, UniProt P30559)
T1 construct: host or cells: CHO cells, stably transfected (pcDNA3.1 vector)
T1 sequence (P30559 1-389): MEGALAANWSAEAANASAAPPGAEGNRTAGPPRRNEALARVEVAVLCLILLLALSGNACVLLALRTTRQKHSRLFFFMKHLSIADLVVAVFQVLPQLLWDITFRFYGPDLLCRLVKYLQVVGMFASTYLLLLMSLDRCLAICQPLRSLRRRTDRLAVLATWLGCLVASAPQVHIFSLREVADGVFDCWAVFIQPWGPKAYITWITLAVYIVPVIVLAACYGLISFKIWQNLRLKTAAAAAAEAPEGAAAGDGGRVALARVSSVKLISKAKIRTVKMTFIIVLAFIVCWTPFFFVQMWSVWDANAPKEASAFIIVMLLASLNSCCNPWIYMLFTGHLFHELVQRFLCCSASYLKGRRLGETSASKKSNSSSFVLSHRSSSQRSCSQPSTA
Experiment: Oxytocin binding in CHO cell membranes expressing human oxytocin receptors ([3H]oxytocin radioligand binding)
Conditions: for inhibition at 0.1 µM: 100 nM, read-out: OT % inhibition @ 100 nM
Summary of the method: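 Values are % inhibition at one concentration or nM IC50 from [3H]oxytocin displacement. Membranes from human oxytocin receptor CHO cells, 25–50 μg protein/well, 60 min at room temperature, pH 7.4 Tris buffer with protease inhibitors; bound label by filtration and scintillation counting.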

inhibition at 0.1 µM	IC50 (value in parentheses, read-out: OT (IC50))	Compound
91%	–	COc1ccccc1-c1ccc(C(=O)N2Cc3ccc(C(=O)N(C)CCc4ccccn4)n3Cc3ccccc32)cc1 [Example 67, 10-[(2′-Methoxy-[1,1′-biphenyl]-4-yl)carbonyl]-N-methyl-N-[2-(2-pyridinyl)ethyl]-10,11-dihydro-5H-pyrrolo[2,1-c][1,4]benzodiazepine-3-carboxamide]
89%	–	COc1cccc(-c2ccc(C(=O)N3Cc4ccc(C(=O)N(C)CCc5ccccn5)n4Cc4ccccc43)cc2OC)c1 [Example 72, 10-[(2,3′-Dimethoxy-[1,1′-biphenyl]-4-yl)carbonyl]-N-methyl-N-[2-(2-pyridinyl)ethyl]-10,11-dihydro-5H-pyrrolo[2,1-c][1,4]benzodiazepine-3-carboxamide]
46%	–	COc1ccccc1-c1ccc(C(=O)N2Cc3ccc(C(=O)N4CCN(c5ccccn5)CC4)n3Cc3ccccc32)cc1OC [Example 84, {10-[(2,2′-Dimethoxy-[1,1′-biphenyl]-4-yl)carbonyl]-10,11-dihydro-5H-pyrrolo[2,1-c][1,4]benzodiazepin-3-yl}[4-(2-pyridinyl)-1-piperazinyl]methanone]
27%	–	COc1cccc(-c2cc(OC)c(C(=O)N3Cc4ccc(C(=O)N5CCN(c6ccccn6)CC5)n4Cc4ccccc43)cc2Cl)c1 [Example 82, {10-[(6-Chloro-3,3′-dimethoxy-[1,1′-biphenyl]-4-yl)carbonyl]-10,11-dihydro-5H-pyrrolo[2,1-c][1,4]benzodiazepin-3-yl}[4-(2-pyridinyl)-1-piperazinyl]methanone]
–	5.08 nM	COc1cc(-c2ccccc2C)c(Cl)cc1C(=O)N1Cc2ccc(C(=O)N(C)CCc3ccccn3)n2Cc2ccccc21 [Example 63, 10-[(6-Chloro-3-methoxy-2′-methyl-[1,1′-biphenyl]-4-yl)carbonyl]-N-methyl-N-[2-(2-pyridinyl)ethyl]-10,11-dihydro-5H-pyrrolo[2,1-c][1,4]benzodiazepine-3-carboxamide]
67%	–	Cc1ccccc1-c1ccc(C(=O)N2Cc3ccc(C(=O)NCc4ccncc4)n3Cc3ccccc32)cc1C [Example 89, 10-[(2,2′-Dimethyl-[1,1′-biphenyl]-4-yl)carbonyl]-N-(4-pyridinylmethyl)-10,11-dihydro-5H-pyrrolo[2,1-c][1,4]benzodiazepine-3-carboxamide]
32%	–	COc1cccc(-c2ccc(C(=O)N3Cc4ccc(C(=O)N5CCN(c6ccccn6)CC5)n4Cc4ccccc43)cc2OC)c1 [Example 85, {10-[(2,3′-Dimethoxy-[1,1′-biphenyl]-4-yl)carbonyl]-10,11-dihydro-5H-pyrrolo[2,1-c][1,4]benzodiazepin-3-yl}[4-(2-pyridinyl)-1-piperazinyl]methanone]
36%	–	COc1ccccc1-c1ccc(C(=O)N2Cc3ccc(C(=O)NCc4ccncc4)n3Cc3ccccc32)cc1OC [Example 97, 10-[(2,2′-Dimethoxy-[1,1′-biphenyl]-4-yl)carbonyl]-N-(4-pyridinylmethyl)-10,11-dihydro-5H-pyrrolo[2,1-c][1,4]benzodiazepine-3-carboxamide]
